Data published in patent US20140294856A1, “COMBINATION TREATMENT COMPRISING A HDAC6 INHIBITOR AND AN AKT INHIBITOR” (priority 2011, published 2014).

Assays:
A549 cells = assay: Impact of BSO (GSH depletion) on growth inhibition, SRB assay; type: cell-based; conditions: 10 μM BSO for 24 hours
[1] = Stability in PBS at acidic pH, HPLC-UV; type: physicochemical; conditions: down to pH 2, cell free, 10 μM in PBS, 1 hour, 37° C.
Method: FIG. 3. Impact of the pH on the stability of HDAC-C1A. HDAC-C1A was incubated at 10 μM in PBS for 1 hour at 37° C. and the concentration was evaluated using HPLC-UV. The pH of PBS was adjusted using HCL.
(§1) The drug was stable after oral, parenteral and intravenous administration for 24 h (last time point examined). […] The Cma and AUC0-24h following i.p. injection (20 mg/kg) were 3.2 μg/mL and 11.2 μg/mL*h, respectively. […] The acid instability of HDAC-C1A could therefore be improved by enteric coating as a means to avoid breakdown in the stomach. […] HDAC-C1A was also tested in HCT116 human colon cancer xenograft model using a refined dose and scheduling. […] This dose was non-toxic (no reduction in body weight) (FIG. 5.D). The acetylated form of α-tubulin (biomarker of response to HDAC6 inhibition) could be observed after 14 days of treatment and could be detected as early as 6 hours after the 1st injection (FIG. 5.E.). The acetylated form of Histone 3 (biomarker of response of class I histones) could be observed as early as 2 hours after the 1st injection and remain after 14 days of treatment (FIG. 5.E).

caco-2 cells = assay: caco-2 transwell permeability assay
A2780 = assay: Phospho-AKT levels by western blotting; type: cell-based, human; conditions: ovarian cancer cell line A2780
[2] = Pharmacokinetics following a single injection; type: in vivo
Method: FIG. 4. Pharmacokinetic profile of HDAC-C1A following a single injection at 20 mg/kg.
FIG. 22 (Table 3): Pharmacokinetic data of HDAC-C1A following a single injection.
as §1

Ishikawa = assay: Phospho-AKT levels by western blotting; type: cell-based; conditions: endometrial cancer cell line Ishikawa (PTEN-null)
RAD51 = RAD51 mRNA and protein expression; type: cell-based; conditions: in vitro and in vivo
HCT116 cells = assay: Acetylation biomarkers by western blotting (with washout); type: cell-based, human
Method: FIG. 1. HDAC-C1A irreversible activity. A. […] inhibitory activity of HDAC-C1A was tested using HeLa nuclear extracts and compared to the negative (reversible) control HDAC-C1B. B Growth inhibitory effect of the different compounds in HCT-116 cells at indicated time and compared to growth inhibitory after 72 hours of incubation.
HSP90 protein expression was not altered (FIG. 2).

HDAC-8 = HDAC-8 (Homo sapiens, UniProt Q9BY41); assay: Enzyme inhibition activity, Fluor-de-Lys kit; type: biochemical
Description: HDAC-C1A is a particularly preferred HDAC6 inhibitor of the invention. […] HDAC-C1A is approximately 7-fold more specific for HDAC6 than for HDAC-8 and approximately 17-fold more specific for HDAC6 when compared with HDAC1 (see Table 1). […] As brain permeability remains a major limitation for drug treatment of CNS disorders, HDAC-C1A, or compounds derived from HDAC-C1A, appear to be very promising drug candidates.
FIG. 20 (Table 1): Enzyme inhibition activity using HeLa nuclear extract and the Fluor-de-Lys kit.

IGROV-1 = assay: Phospho-AKT levels by western blotting; type: cell-based; conditions: ovarian cancer cell line IGROV-1
A2780 cells = assay: Growth inhibition (GI50); type: cell-based, human
ABCG2 = target: T1, ABCG2 (Homo sapiens, UniProt Q9UNQ0); assay: Impact of ABCG2 on cytotoxicity, SRB assay, MCF7-MX vs MCF7
T1 sequence (Q9UNQ0 1-655): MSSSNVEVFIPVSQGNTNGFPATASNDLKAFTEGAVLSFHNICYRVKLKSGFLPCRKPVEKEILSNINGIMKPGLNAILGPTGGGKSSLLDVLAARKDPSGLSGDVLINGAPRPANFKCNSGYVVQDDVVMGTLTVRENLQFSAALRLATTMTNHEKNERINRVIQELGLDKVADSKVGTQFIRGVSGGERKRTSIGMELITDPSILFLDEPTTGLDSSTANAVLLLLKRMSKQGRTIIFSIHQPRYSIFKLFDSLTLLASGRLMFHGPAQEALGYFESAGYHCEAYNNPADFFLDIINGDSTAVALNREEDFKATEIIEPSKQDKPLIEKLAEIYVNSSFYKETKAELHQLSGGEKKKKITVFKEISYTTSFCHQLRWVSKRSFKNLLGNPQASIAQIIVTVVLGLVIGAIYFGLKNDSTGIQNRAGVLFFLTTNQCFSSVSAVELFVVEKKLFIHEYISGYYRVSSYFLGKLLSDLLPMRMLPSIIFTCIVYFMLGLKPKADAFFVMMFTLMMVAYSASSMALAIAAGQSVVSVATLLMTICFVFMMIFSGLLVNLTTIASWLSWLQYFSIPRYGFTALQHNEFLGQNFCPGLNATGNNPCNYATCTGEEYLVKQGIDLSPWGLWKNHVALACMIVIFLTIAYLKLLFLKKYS

Sequence of HDAC-8 (Q9BY41 whole entry): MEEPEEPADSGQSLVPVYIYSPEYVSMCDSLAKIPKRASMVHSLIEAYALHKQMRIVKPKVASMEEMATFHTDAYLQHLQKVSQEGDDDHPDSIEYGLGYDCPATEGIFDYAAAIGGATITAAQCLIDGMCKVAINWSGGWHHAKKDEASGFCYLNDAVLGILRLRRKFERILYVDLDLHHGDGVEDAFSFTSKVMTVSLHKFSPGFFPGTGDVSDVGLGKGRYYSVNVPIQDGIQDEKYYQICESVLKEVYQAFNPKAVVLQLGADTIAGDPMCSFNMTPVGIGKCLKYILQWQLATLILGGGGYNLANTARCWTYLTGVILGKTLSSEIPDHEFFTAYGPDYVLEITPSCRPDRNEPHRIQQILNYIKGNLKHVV

CC(/C=C/C(=O)NO)=C\c1ccc(NS(=O)(=O)c2ccc(N(CCCl)CCCl)cc2)cc1 [HDAC-C1A]
impact of BSO on growth inhibition (GI50 ratio) (A549 cells): No difference
stability across acidic pH [1]: relative acidic degradation
permeability across caco-2 cells (caco-2 cells; Caco-2): relatively good permeability
substrate of the ABC transporters (caco-2 cells; Caco-2): non substrate
permeability (PappA-B) (caco-2 cells; caco-2 cells): 5.1 ×10⁻⁶ cm/s
PappB-A/PappA-B ratio (caco-2 cells; ratio greater than 3 = actively effluxed): 2.8
P-AKT levels (A2780): increased
AUC0-24h ([2]; given orally): 94000 ng·h/mL
Cmax ([2]; given orally): 700 ng/mL
AUC0-24h ([2]; i.p. injection 20 mg/kg): 11200 ng·h/mL
Cmax ([2]; i.p. injection 20 mg/kg): 3200 ng/mL
dose proportionality of pharmacokinetics ([2]; i.p. injection, up to 160 mg/kg): dose proportionate
oral bioavailability ([2]; in vivo, po): 16%
stability after administration ([2]; oral, parenteral and intravenous, 24 h last time point): stable
P-AKT levels increased (Ishikawa): not
RAD51 mRNA and protein expression (RAD51): did not increase
HSP90 protein expression (HCT116 cells): not altered
acetylation markers at low concentration and early time point (HCT116 cells; 1 μM and 4 hours): increase of acetyl-tubulin and other markers of HDAC6 inhibition
acetyl form of HSP90 (HCT116 cells; 4 h and 24 h, 1 μM and 10 μM): dose and time dependent increase
acetylation of histone H3, H4 and α-tubulin after washout (HCT116 cells; treatment 4 hours, then washout): maintained at 4 hours after washout
fold more specific for HDAC6 than for HDAC-8 (HDAC-8): approximately 7 fold
P-AKT levels (IGROV-1): increased
GI50 (A2780 cells): 700 nM
fold resistance (GI50 ratio) MCF7-MX vs parental MCF7 (ABCG2; ABCG2 overexpressing): 2.8 fold
reversal of resistance by FTC in MCF7-MX cells (ABCG2; FTC, specific inhibitor of ABCG2): 5.2 fold
